In this experiment the test system is human CD40 transgenic mice. Briefly: Mouse skin graft rejection model. The settings on record: for Skin graft score: 3 mpk. In kind it is in vivo. From the text: Male Balb/c mice, 6 weeks old, were purchased from the Laboratory Animal Management Department, Shanghai Institute of Planned Parenthood Research. Housing environment: SPF; certification number: 20180006023393.
On day −2 of the experiment, the mice were intraperitoneally injected with tacrolimus FK506 or CD40 antagonistic antibodies. On day 0 of the experiment, donor Balb/c mice and C57BL6/J mice were anesthetized with 4% chloral hydrate. The tails of the donor mice were removed, and full circles of skin, 1 cm in length, were isolated from the tails. The hair on the acceptor mice's back was removed, and an incision was made along the skin layer. An equal area of skin was removed while preserving the back fat and connective tissue. The donor skin was placed on the acceptor mice's incision site, and the incision was closed with glue. The mice were then placed back in cages to recover.
The mice were dosed according to the administration regimens in Table 17. After 7 days of recovery, the mouse skin survival was observed daily and rejection scores were recorded.

Take `C=CC[C@@H]1/C=C(\C)C[C@H](C)C[C@H](OC)[C@H]2O[C@@](O)(C(=O)C(=O)N3CCCC[C@H]3C(=O)O[C@H](/C(C)=C/[C@@H]3CC[C@@H](O)[C@H](OC)C3)[C@H](C)[C@@H](O)CC1=O)[C@H](C)C[C@@H]2OC` [FK506, tacrolimus, reference compound]: the Skin graft score (8 days, scale 3 (no rejection) to 0) is recorded as 2.5; the Skin graft score (10 days, scale 3 to 0) turned out to be 1.5; the Skin graft score (15 days, scale 3 to 0) came to 0.5; the Skin graft score (20 days, scale 3 to 0) was found to be 0. In addition, the “Skin graft survival rate (%)” value (Day 15, 3 mpk ip) was found to be 16.7%.

For the origin of these results see patent US20250340661A1, “ANTI CD40 ANTIBODY, ANTIGEN BINDING FRAGMENT AND MEDICAL USE THEREOF” (Jiangsu Hengrui Pharmaceuticals Co., Ltd., priority 2021, published 2025).
